The experiment concerns the target T1, KCNQ2/3 channels (Homo sapiens, UniProt O43525+O43526).
T1 construct: expressed in transfected cells; host or cells: CHO-K1
In words: Fluorescence assay using a voltage-sensitive dye (fluorimetry). It is filed as cell-based. The settings on record: CHO-K1 cells expressing KCNQ2/3; for EC50: agonistic activity; for Emax: read-out: Fluorimetry % efficacy (I/EC50, retigabine = 100%). The procedure: Pharmacological Experiments Fluorescence Assay Using a Voltage-Sensitive Dye
Human CHO-K1 cells expressing KCNQ2/3 channels are cultivated adherently at 37° C., 5% CO2 and 95% humidity in cell culture bottles (e.g. 80 cm^2 TC flasks, Nunc) with DMEM-high glucose (Sigma Aldrich, D7777) including 10% FCS (PAN Biotech, e.g. 3302-P270521) or alternatively MEM Alpha Medium (1×, liquid, Invitrogen, #22571), 10% foetal calf serum (FCS) (Invitrogen, #10270-106, heat-inactivated) and the necessary selection antibiotics.
Before being seeded out for the measurements, the cells are washed with a 1×DPBS buffer without Ca^2+/Mg^2+ (e.g. Invitrogen, #14190-094) and detached from the bottom of the culture vessel by means of Accutase (PAA Laboratories, #L11-007) (incubation with Accutase for 15 min at 37° C.). The cell count then present is determined using a CASY™ cell counter (TCC model, Schärfe System) in order subsequently to apply 20,000 to 30,000 cells/well/100 μl of the described nutrient medium, depending on density optimisation for the individual cell line, to 96-well measuring plates of the Corning™ CellBIND™ type (flat clear-bottom black polystyrene microplates, #3340). Incubation is then carried out for one hour at room temperature, without gassing or adjusting the humidity, followed by incubation for 24 hours at 37° C., 5% CO2 and 95% humidity.
The voltage-sensitive fluorescent dye from the Membrane Potential Assay Kit (Red™ bulk format part R8123 for FLIPR, MDS Analytical Technologies™) is prepared by dissolving the contents of a vessel of Membrane Potential Assay Kit Red Component A in 200 ml of extracellular buffer (ES buffer, 120 mM NaCl, 1 mM KCl, 10 mM HEPES, 2 mM CaCl2, 2 mM MgCl2, 10 mM glucose; pH 7.4). After removal of the nutrient medium, the cells are washed with 200 μl of ES buffer, then covered with a layer of 100 μl of the dye solution prepared above and incubated for 45 min at room temperature with exclusion of light.
The fluorescence measurements are carried out with a BMG Labtech FLUOstar™, BMG Labtech NOVOstar™ or BMG Labtech POLARstar™ instrument (525 nm excitation, 560 nm emission, bottom-read mode). After incubation of the dye, 50 μl of the substances to be tested in the desired concentrations, or 50 μl of ES buffer for control purposes, are introduced into separate cavities of the measuring plate and incubated for 30 min at room temperature whilst being shielded from light. The fluorescence intensity of the dye is then measured for 5 min and the fluorescence value F1 of each well is thus determined at a given, constant time. 15 μl of a […] KCl solution […] are then added to each well. The change in fluorescence is subsequently measured until all relevant measured values have been obtained (mainly […]). At a given time after KCl application, a fluorescence value F2 is determined, in this case at the time of the fluorescence peak.
For calculation, the fluorescence intensity F2 is compared with the fluorescence intensity F1, and the agonistic activity of the target compound on the potassium channel is determined therefrom. F2 and F1 are calculated as follows: […]
In order to determine whether a substance has an agonistic activity,
[formula] is determined by adding to the reaction batch only the buffer solution instead of the substance to be tested, determining the value F1K of the fluorescence intensity, adding the potassium ions as described above and measuring a value F2K of the fluorescence intensity. Then F2K and F1K are calculated as follows: […]
A substance has an agonistic activity on the potassium channel if
Independently of the comparison of
[formula] it is also possible to conclude that a target compound has an agonistic activity if an increase in
[formula] is to be observed as the dosage of the target compound increases.
Calculations of EC50 values are carried out with the aid of Prism v4.0 software (GraphPad Softwares™).

[1] abbreviates: relative to retigabine = 100%, negative values = antagonistic.

Here are results for 23 compounds from patent publication US8247573B2, “Substituted N-(2-mercaptopyridin-3-yl)amides as KCNQ2/3 modulators” (Gruenenthal GmbH, priority 2009, dated 2012).

Each structure is given as a SMILES string.

Compound `O=C(CC1CCCCC1)Nc1cccnc1SCCSc1cccc(C(F)(F)F)c1` [Example 29, 2-Cyclohexyl-N-[2-[2-[[3-(trifluoromethyl)phenyl]sulfanyl]-ethylsulfanyl]-pyridin-3-yl]acetamide] showed an EC50 of 312 nM. Further, the Emax under setting [1] was 108%.
`O=C(/C=C/c1ccc(F)cc1)Nc1cccnc1SCCS(=O)(=O)c1cccc(C(F)(F)F)c1` [Example 31, (E)-3-(4-Fluorophenyl)-N-[2-[2-[[3-(trifluoromethyl)phenyl]sulfonyl]-ethylsulfanyl]-pyridin-3-yl]acrylamide] came in with an EC50 of 841 nM. Besides, the Emax under setting [1] was 109%.
With `O=C(Cc1cccs1)Nc1cccnc1SCCCc1ccccc1` [Example 33, N-[2-(3-Phenyl-propylsulfanyl)-pyridin-3-yl]-2-thiophen-2-yl acetamide], the midpoint of the response, the EC50, lay at 141 nM. For the same compound, the Emax under setting [1] is 106%.
Turning to `O=C(Nc1cccnc1SCCS(=O)(=O)c1cccc(C(F)(F)F)c1)c1ccc(Cl)nc1` [Example 35, 6-Chloro-N-[2-[2-[[3-(trifluoromethyl)phenyl]sulfonyl]-ethylsulfanyl]-pyridin-3-yl]-pyridine-3-carboxylic acid amide], the Emax under setting [1] was 43%.
Same read-out and setting: under `O=C(Cc1ccncc1)Nc1cccnc1SCCS(=O)(=O)c1cccc(C(F)(F)F)c1` [Example 36, 2-Pyridin-4-yl-N-[2-[2-[[3-(trifluoromethyl)phenyl]sulfonyl]-ethylsulfanyl]-pyridin-3-yl]acetamide] stands 38%; under `O=C(Cc1cccc(O)c1)Nc1cccnc1SCCS(=O)(=O)c1cccc(C(F)(F)F)c1` [Example 37, 2-(3-Hydroxyphenyl)-N-[2-[2-[[3-(trifluoromethyl)phenyl]sulfonyl]-ethylsulfanyl]-pyridin-3-yl]acetamide], 31%.
On the same count and under the same terms, then `O=C(Nc1cccnc1SCCS(=O)(=O)c1cccc(C(F)(F)F)c1)C1CCCOC1` (centres unmarked) [Example 38, N-[2-[2-[[3-(Trifluoromethyl)phenyl]sulfonyl]-ethylsulfanyl]-pyridin-3-yl]-tetrahydropyrane-3-carboxylic acid amide], with 35%.
`O=C(CC1CCCCO1)Nc1cccnc1SCCS(=O)(=O)c1cccc(C(F)(F)F)c1` (centres unmarked) [Example 39, 2-Tetrahydropyran-2-yl-N-[2-[2-[[3-(trifluoromethyl)phenyl]sulfonyl]-ethylsulfanyl]-pyridin-3-yl]acetamide] registered an EC50 of 363 nM. Moreover, the Emax under setting [1] turned out to be 139%.
On to `O=C(CC1CCOCC1)Nc1cccnc1SCCS(=O)(=O)c1cccc(C(F)(F)F)c1` [Example 40, 2-Tetrahydropyran-4-yl-N-[2-[2-[[3-(trifluoromethyl)phenyl]sulfonyl]-ethylsulfanyl]-pyridin-3-yl]acetamide], for which the Emax under setting [1] is 52%.
As to `O=C(CCC1CCCCC1)Nc1cccnc1SCCS(=O)(=O)c1cccc(C(F)(F)F)c1` [Example 41, 3-Cyclohexyl-N-[2-[2-[[3-(trifluoromethyl)phenyl]sulfonyl]-ethylsulfanyl]-pyridin-3-yl]propionamide], the response was half-maximal at 99 nM (EC50). Moreover, under setting [1], the Emax was 127%.
Compound `O=C(CC1CCCCC1)Nc1cccnc1SCCSc1ccccc1` [Example 44, 2-Cyclohexyl-N-[2-(2-phenylsulfanyl-ethylsulfanyl)-pyridin-3-yl]acetamide] yielded an EC50 of 153 nM. In addition, the Emax under setting [1] worked out at 80%.
As for `O=C(Cc1cccs1)Nc1cccnc1SCCOc1ccccc1` [Example 45, N-[2-(2-Phenoxy-ethylsulfanyl)-pyridin-3-yl]-2-thiophen-2-yl acetamide], under setting [1], the “Fluorimetry % efficacy (I/EC50, retigabine = 100%)” value is 58%.
As to `O=C(Cc1cccnc1)Nc1cccnc1SCCS(=O)(=O)c1cccc(C(F)(F)F)c1` [Example 46, 2-Pyridin-3-yl-N-[2-[2-[[3-(trifluoromethyl)phenyl]sulfonyl]-ethylsulfanyl]-pyridin-3-yl]acetamide], the Emax under setting [1] is 50%.
For `O=C(Nc1cccnc1SCCS(=O)(=O)c1cccc(C(F)(F)F)c1)c1cccc(O)c1` [Example 47, 3-Hydroxy-N-[2-[2-[[3-(trifluoromethyl)phenyl]sulfonyl]-ethylsulfanyl]-pyridin-3-yl]benzamide], the EC50 was 265 nM. In addition, under setting [1], the Emax was 95%.
On to `O=C(Nc1cccnc1SCCS(=O)(=O)c1cccc(C(F)(F)F)c1)C1CCCCO1` (centres unmarked) [Example 48, N-[2-[2-[[3-(Trifluoromethyl)phenyl]sulfonyl]-ethylsulfanyl]-pyridin-3-yl]-tetrahydropyrane-2-carboxylic acid amide], for which a half-maximal response (EC50) required 174 nM. For the same compound, the Emax under setting [1] worked out at 93%.
Compound `O=C(CC1CCCCCC1)Nc1cccnc1SCCS(=O)(=O)c1cccc(C(F)(F)F)c1` [Example 49, 2-Cycloheptyl-N-[2-[2-[[3-(trifluoromethyl)phenyl]sulfonyl]-ethylsulfanyl]-pyridin-3-yl]acetamide] gave a 50% effective concentration (EC50) of 19 nM. For the same compound, under setting [1], the Emax was 108%.
The compound `O=C(Nc1cccnc1SCCS(=O)(=O)c1cccc(C(F)(F)F)c1)c1ccc(F)cc1O` [Example 51, 4-Fluoro-2-hydroxy-N-[2-[2-[[3-(trifluoromethyl)phenyl]sulfonyl]-ethylsulfanyl]-pyridin-3-yl]benzamide] yielded a concentration giving a half-maximal response (EC50) of 106 nM. In addition, the Emax under setting [1] amounted to 32%.
Turning to `O=C(CC1CCc2ccccc2C1)Nc1cccnc1SCCS(=O)(=O)c1cccc(C(F)(F)F)c1` (centres unmarked) [Example 52, 2-(1,2,3,4-Tetrahydronaphthalen-2-yl)-N-[2-[2-[[3-(trifluoromethyl)phenyl]sulfonyl]-ethylsulfanyl]-pyridin-3-yl]acetamide], the half-maximal effective concentration (EC50) amounted to 208 nM. Further, the Emax under setting [1] was determined as 59%.
As to `O=C(Nc1cccnc1SCCS(=O)(=O)c1cccc(C(F)(F)F)c1)c1ccccc1O` [Example 53, 2-Hydroxy-N-[2-[2-[[3-(trifluoromethyl)phenyl]sulfonyl]-ethylsulfanyl]-pyridin-3-yl]benzamide], under setting [1], the Emax is 27.4%.
Take `O=C1CCCC(CC(=O)Nc2cccnc2SCCS(=O)(=O)c2cccc(C(F)(F)F)c2)C1` (centres unmarked) [Example 55, 2-(3-Oxocyclohexyl)-N-[2-[2-[[3-(trifluoromethyl)phenyl]sulfonyl]-ethylsulfanyl]-pyridin-3-yl]acetamide]: the EC50 turned out to be 3600 nM. Further, the Emax under setting [1] was 84.8%.
The like results for `Cc1ccnc(SCCS(=O)(=O)c2cccc(C(F)(F)F)c2)c1NC(=O)Cc1cccs1` [Example 56, N-[4-Methyl-2-[2-[[3-(trifluoromethyl)phenyl]sulfonyl]-ethylsulfanyl]-pyridin-3-yl]-2-thiophen-2-yl acetamide] were, in that order, 349 nM and 98.1%.
`O=C(CCC1CCc2ccccc2C1)Nc1cccnc1SCCS(=O)(=O)c1cccc(C(F)(F)F)c1` (centres unmarked) [Example 57, 3-(1,2,3,4-Tetrahydronaphthalen-2-yl)-N-[2-[2-[[3-(trifluoromethyl)phenyl]sulfonyl]-ethylsulfanyl]-pyridin-3-yl]propionamide] registered a half-maximal effective concentration (EC50) of 56.5 nM. The Emax under setting [1] is 134%.
Compound `O=C(CCC1CCCCCC1)Nc1cccnc1SCCS(=O)(=O)c1cccc(C(F)(F)F)c1` [Example 58, 3-Cycloheptyl-N-[2-[2-[[3-(trifluoromethyl)phenyl]sulfonyl]-ethylsulfanyl]-pyridin-3-yl]propionamide] showed an EC50 of 47.5 nM. For the same compound, the Emax under setting [1] came out at 167%.
